Assay results reported in ChEMBL document CHEMBL3132769, “Fragment growing to retain or alter the selectivity of anchored kinase hinge-binding fragments” (Medchemcomm, 2014).

Tests used:
[1] = test system: Tyrosine-protein kinase ABL1 (Homo sapiens), P00519 [H396P]; experiment: Inhibition of human truncated ABL H396P mutant expressed in baculovirus assessed as substrate phosphorylation using fluorescence-labelled peptides as substrate at 0.2 uM after 90 mins by microfluidic peptide phosphorylation assay
[2] = molecular target: Glycogen synthase kinase-3 beta (Homo sapiens) (UniProt P49841); experiment: Inhibition of human full length GSK-3 beta expressed in baculovirus assessed as substrate phosphorylation using fluorescence-labelled peptides as substrate at 0.2 uM after 90 mins by microfluidic peptide phosphorylation assay
[3] = molecular target: Ribosomal protein S6 kinase alpha-1 (Homo sapiens) (UniProt Q15418); experiment: Inhibition of human full length RSK1 expressed in baculovirus assessed as substrate phosphorylation using fluorescence-labelled peptides as substrate at 420 uM after 90 mins by microfluidic peptide phosphorylation assay
[4] = molecular target: Fibroblast growth factor receptor 3 (Homo sapiens) (UniProt P22607); experiment: Inhibition of human FGFR3 catalytic domain expressed in baculovirus assessed as substrate phosphorylation using fluorescence-labelled peptides as substrate at 2 uM after 90 mins by microfluidic peptide phosphorylation assay
[5] = molecular target: Serine/threonine-protein kinase MARK1 (Homo sapiens) (UniProt Q9P0L2); conditions: 0.1 uM
Description: Inhibition of human full length MARK1 expressed in baculovirus assessed as substrate phosphorylation using fluorescence-labelled peptides as substrate at 0.1 uM after 90 mins by microfluidic peptide phosphorylation assay

[6] = molecular target: Serine/threonine-protein kinase MARK2 (Homo sapiens) (UniProt Q7KZI7); experiment: Inhibition of human full length MARK2 expressed in baculovirus assessed as substrate phosphorylation using fluorescence-labelled peptides as substrate at 95 uM after 90 mins by microfluidic peptide phosphorylation assay
[7] = molecular target: Serine/threonine-protein kinase pim-1 (Homo sapiens) (UniProt P11309); experiment: Inhibition of human full length PIM1 expressed in baculovirus assessed as substrate phosphorylation using fluorescence-labelled peptides as substrate at 95 uM after 90 mins by microfluidic peptide phosphorylation assay
[8] = molecular target: T1, Protein kinase C epsilon type (Homo sapiens) (UniProt Q02156); experiment: Inhibition of human truncated PKC epsilon expressed in baculovirus assessed as substrate phosphorylation using fluorescence-labelled peptides as substrate at […] after 90 mins by microfluidic peptide phosphorylation assay
T1 sequence (whole entry): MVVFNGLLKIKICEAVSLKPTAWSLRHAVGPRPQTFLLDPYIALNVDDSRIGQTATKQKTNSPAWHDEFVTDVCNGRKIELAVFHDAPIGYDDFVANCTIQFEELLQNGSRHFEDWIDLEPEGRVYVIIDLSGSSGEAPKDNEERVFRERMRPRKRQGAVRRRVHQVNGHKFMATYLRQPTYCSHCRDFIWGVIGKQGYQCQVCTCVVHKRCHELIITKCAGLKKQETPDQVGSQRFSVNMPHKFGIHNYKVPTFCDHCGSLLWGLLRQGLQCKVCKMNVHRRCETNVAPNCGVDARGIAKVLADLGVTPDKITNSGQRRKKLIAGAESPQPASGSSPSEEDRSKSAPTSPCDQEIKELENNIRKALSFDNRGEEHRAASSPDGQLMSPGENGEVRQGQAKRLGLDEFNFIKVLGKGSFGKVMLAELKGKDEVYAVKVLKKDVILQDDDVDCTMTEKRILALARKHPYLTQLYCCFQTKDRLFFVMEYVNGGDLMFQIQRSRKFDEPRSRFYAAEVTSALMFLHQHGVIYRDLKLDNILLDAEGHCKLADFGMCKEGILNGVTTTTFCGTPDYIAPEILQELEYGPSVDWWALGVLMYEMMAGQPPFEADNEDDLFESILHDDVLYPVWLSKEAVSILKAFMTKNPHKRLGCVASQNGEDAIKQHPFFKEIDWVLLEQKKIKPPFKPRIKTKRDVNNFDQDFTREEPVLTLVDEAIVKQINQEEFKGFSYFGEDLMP

[9] = molecular target: Serine/threonine-protein kinase MARK2 (Homo sapiens) (UniProt Q7KZI7); experiment: Inhibition of human full length MARK2 expressed in baculovirus assessed as substrate phosphorylation using fluorescence-labelled peptides as substrate at 0.06 uM after 90 mins by microfluidic peptide phosphorylation assay
[10] = molecular target: Protein kinase C beta type (Homo sapiens) (UniProt P05771); experiment: Inhibition of human truncated PKC beta1 expressed in baculovirus assessed as substrate phosphorylation using fluorescence-labelled peptides as substrate at 0.06 uM after 90 mins by microfluidic peptide phosphorylation assay
[11] = molecular target: T2, Serine/threonine-protein kinase DCLK2 (Homo sapiens) (UniProt Q8N568); experiment: Inhibition of human full length DCAMKL2 expressed in baculovirus assessed as substrate phosphorylation using fluorescence-labelled peptides as substrate at 0.06 uM after 90 mins by microfluidic peptide phosphorylation assay
T2 sequence (whole entry): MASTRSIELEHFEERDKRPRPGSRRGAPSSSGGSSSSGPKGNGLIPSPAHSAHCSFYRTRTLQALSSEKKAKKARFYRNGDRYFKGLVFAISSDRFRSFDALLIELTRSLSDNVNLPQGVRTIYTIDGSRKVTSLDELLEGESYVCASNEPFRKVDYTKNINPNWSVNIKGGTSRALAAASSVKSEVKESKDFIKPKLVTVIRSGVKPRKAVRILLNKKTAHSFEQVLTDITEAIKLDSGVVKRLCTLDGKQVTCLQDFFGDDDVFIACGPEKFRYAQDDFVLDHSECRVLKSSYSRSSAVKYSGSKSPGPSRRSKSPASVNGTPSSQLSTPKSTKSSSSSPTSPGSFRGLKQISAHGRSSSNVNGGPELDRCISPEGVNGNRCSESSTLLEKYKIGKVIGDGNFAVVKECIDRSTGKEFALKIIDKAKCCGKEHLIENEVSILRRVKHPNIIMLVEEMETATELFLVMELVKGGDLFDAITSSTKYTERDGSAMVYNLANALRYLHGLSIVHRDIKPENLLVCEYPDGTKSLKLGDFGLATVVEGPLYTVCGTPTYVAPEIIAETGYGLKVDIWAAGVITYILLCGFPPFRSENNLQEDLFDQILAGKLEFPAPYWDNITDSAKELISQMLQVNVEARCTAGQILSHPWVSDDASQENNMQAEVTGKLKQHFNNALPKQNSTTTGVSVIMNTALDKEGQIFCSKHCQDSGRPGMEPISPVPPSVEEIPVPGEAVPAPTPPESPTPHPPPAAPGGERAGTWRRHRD

[12] = molecular target: Ribosomal protein S6 kinase alpha-3 (Homo sapiens) (UniProt P51812); experiment: Inhibition of human full length RSK2 expressed in baculovirus assessed as substrate phosphorylation using fluorescence-labelled peptides as substrate at 70 uM after 90 mins by microfluidic peptide phosphorylation assay
Sequence of Ribosomal protein S6 kinase alpha-3 (Homo sapiens) (P51812 whole entry): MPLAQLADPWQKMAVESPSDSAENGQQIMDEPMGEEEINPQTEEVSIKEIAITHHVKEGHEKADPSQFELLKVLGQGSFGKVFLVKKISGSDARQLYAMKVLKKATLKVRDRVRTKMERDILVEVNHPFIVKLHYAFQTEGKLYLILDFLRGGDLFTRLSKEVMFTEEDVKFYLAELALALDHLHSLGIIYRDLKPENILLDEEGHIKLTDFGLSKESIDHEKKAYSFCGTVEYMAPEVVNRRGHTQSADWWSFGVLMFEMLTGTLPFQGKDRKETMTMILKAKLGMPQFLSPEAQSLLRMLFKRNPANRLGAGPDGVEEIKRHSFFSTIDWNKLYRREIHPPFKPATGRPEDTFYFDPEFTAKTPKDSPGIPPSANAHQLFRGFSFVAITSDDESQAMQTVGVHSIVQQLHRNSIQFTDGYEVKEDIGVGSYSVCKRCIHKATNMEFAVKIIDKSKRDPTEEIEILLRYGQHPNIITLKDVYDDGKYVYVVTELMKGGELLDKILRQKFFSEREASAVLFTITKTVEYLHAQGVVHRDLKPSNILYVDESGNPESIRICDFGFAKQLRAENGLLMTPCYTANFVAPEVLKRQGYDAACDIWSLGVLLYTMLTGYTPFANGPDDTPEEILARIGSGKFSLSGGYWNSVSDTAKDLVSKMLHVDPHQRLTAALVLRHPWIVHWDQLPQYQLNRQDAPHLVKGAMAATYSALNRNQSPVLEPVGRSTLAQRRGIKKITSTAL

Sequence of Serine/threonine-protein kinase MARK2 (Homo sapiens) (Q7KZI7 whole entry, the tested form may be a part): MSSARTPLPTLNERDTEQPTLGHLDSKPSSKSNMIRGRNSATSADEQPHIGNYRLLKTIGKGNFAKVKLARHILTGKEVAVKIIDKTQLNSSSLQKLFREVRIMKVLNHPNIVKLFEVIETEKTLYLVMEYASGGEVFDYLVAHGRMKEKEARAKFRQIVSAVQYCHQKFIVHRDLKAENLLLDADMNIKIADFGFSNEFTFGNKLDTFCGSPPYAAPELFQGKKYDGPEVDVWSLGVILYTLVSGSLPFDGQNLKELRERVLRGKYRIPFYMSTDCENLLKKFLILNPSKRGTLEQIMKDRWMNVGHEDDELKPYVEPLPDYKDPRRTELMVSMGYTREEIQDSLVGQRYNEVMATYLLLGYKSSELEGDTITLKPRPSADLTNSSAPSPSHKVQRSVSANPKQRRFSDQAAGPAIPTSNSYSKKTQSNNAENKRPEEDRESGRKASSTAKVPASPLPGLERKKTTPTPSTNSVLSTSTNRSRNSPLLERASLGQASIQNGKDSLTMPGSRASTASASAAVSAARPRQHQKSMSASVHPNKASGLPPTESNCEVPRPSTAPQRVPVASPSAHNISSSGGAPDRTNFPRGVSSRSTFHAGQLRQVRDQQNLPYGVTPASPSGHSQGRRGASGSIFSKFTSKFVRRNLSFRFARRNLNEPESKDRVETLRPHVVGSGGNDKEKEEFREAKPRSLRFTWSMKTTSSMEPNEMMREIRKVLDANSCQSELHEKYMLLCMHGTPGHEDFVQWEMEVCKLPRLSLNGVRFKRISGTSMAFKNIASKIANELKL
Sequence of Serine/threonine-protein kinase MARK1 (Homo sapiens) (Q9P0L2 whole entry, looked up): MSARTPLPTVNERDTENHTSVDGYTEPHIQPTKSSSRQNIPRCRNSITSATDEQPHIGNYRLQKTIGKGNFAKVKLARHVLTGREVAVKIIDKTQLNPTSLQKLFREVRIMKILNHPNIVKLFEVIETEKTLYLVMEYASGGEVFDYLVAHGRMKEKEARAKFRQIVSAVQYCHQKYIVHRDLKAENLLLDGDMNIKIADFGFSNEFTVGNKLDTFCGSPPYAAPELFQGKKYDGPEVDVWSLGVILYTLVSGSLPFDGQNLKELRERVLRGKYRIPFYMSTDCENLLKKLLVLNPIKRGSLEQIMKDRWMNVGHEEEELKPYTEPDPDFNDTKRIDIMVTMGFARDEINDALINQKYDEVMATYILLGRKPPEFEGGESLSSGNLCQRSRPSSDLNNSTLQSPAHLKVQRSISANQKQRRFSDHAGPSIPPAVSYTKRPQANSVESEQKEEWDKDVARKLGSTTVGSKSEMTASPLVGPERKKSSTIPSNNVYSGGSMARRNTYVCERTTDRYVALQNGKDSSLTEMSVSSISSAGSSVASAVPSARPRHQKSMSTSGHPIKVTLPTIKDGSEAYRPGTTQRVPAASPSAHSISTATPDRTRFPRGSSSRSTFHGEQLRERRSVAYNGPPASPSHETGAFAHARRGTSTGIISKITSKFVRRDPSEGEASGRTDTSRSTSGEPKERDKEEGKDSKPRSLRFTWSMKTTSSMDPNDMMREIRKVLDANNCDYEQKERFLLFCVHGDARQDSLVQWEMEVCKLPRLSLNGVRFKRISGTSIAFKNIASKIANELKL
Sequence of Protein kinase C beta type (Homo sapiens) (P05771 2-671 limits assumed): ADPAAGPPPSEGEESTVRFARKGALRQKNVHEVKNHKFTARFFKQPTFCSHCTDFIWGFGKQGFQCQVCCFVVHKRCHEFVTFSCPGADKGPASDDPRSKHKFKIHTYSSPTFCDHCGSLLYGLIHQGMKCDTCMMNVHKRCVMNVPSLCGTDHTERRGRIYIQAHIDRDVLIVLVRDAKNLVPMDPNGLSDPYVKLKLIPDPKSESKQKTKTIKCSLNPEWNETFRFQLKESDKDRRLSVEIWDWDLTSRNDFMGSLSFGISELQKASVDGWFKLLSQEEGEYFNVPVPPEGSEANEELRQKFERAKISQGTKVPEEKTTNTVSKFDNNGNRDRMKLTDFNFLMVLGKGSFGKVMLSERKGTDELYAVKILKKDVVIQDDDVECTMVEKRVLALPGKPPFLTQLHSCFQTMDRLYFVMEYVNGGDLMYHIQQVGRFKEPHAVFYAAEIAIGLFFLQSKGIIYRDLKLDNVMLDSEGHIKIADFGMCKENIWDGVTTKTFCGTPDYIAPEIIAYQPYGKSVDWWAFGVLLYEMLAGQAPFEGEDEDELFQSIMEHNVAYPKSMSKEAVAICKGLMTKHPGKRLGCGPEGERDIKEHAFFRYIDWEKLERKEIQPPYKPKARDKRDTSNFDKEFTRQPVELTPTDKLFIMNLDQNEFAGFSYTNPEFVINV
Sequence of Serine/threonine-protein kinase pim-1 (Homo sapiens) (P11309 whole entry, looked up, the tested form may be a part): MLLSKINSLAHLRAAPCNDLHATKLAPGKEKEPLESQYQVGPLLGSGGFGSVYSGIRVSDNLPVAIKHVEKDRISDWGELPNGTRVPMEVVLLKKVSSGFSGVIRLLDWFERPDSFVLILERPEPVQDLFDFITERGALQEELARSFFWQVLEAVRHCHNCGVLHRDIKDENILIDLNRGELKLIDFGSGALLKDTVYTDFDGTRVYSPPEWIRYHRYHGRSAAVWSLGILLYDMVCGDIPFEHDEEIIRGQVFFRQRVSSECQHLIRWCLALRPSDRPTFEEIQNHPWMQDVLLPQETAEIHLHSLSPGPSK
Sequence of Ribosomal protein S6 kinase alpha-1 (Homo sapiens) (Q15418 whole entry, the tested form may be a part): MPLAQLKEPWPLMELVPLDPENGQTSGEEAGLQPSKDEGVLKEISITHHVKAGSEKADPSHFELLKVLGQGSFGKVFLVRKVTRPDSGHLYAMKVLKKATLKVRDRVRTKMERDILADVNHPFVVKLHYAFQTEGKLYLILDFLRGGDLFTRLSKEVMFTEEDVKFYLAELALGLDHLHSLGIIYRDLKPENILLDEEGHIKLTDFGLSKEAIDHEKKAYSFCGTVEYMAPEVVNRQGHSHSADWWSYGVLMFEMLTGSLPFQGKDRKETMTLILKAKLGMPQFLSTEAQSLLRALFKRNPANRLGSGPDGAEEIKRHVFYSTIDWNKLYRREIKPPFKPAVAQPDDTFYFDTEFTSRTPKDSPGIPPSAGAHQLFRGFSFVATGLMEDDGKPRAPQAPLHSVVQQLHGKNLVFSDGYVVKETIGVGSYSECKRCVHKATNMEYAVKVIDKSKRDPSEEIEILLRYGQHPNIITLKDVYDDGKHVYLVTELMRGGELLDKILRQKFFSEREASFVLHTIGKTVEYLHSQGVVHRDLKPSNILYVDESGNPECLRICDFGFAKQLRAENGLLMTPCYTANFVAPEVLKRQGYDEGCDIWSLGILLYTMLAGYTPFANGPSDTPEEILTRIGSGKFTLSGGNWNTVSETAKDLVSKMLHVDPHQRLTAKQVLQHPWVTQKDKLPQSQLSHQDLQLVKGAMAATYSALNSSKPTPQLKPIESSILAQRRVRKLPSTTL
Sequence of Fibroblast growth factor receptor 3 (Homo sapiens) (P22607 23-806 limits assumed): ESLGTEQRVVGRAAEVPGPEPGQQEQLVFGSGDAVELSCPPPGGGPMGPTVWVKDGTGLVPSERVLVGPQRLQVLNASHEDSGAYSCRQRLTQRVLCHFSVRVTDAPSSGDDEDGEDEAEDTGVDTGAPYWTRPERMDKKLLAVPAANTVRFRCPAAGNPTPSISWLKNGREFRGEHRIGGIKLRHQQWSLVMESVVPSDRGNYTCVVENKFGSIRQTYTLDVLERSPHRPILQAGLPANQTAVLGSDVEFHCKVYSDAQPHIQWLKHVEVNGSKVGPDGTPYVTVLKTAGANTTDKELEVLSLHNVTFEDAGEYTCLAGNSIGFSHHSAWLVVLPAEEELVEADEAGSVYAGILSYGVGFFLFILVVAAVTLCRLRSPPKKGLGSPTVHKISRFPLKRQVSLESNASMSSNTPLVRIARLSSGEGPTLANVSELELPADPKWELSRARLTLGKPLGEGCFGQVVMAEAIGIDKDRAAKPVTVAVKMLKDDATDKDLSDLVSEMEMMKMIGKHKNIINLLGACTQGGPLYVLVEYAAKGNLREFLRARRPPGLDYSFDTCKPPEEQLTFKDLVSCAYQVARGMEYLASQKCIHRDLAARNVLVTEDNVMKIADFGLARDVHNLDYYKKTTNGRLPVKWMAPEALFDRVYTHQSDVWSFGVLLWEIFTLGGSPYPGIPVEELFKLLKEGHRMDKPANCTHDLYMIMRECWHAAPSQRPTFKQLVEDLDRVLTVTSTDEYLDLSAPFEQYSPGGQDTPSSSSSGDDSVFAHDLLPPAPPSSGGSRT

## Clc1ccc(C2(c3ccc(-c4ncnc5[nH]cnc45)cc3)CCNCC2)cc1
[1]
  inhibition: 4.5%
[2]
  inhibition: 3.5%

## c1nc(N2CCOCC2)c2nc[nH]c2n1
[3]
  inhibition: 87%

## NC1CCN(c2ncnc3[nH]ccc23)CC1
[4]
  inhibition: 0%

## C[C@H](CN(C)C)Oc1nc(Nc2cc3cccc(Cl)c3cn2)cnc1C#N
[5]
  inhibition: 0%

## NCCc1ccc(-c2ncnc3[nH]cnc23)cc1
[6]
  inhibition: 67%
[7]
  inhibition: 42.5%

## COC(=O)c1cnc(Nc2cnc(C#N)cn2)cc1NCC1CCNCC1
[8]
  inhibition: 1%

## NC1(Cc2ccc(Cl)cc2)CCN(c2ncnc3[nH]ccc23)CC1
[9]
  inhibition: 0%
[10]
  inhibition: 3.5%
[11]
  inhibition: 0%

## CNCc1ccc(-c2ncnc3[nH]cnc23)cc1
[12]
  inhibition: 75%
